Measured values from PMC11721041 (Molecules, 2024).
Several values for one entry are separate records, joined by “and”; a condition that tells them apart may be missing. Equal values may be shown once. Read-outs that look alike come from different tables or passages of the source.

Key:
[1] = target: butyrylcholinesterase (BChE); details: cited from earlier work; for BChE activity (in words): native triterpenic acids
[2] = target: T1, Acetylcholinesterase from Electrophorus electricus (electric eel) (Electrophorus electricus, UniProt O42275); test: In vitro AChE inhibition assay (modified Ellman's method); format: biochemical; details: for IC50: IC50 against AChE enzyme, triplicate; for IC50 / AChE inhibitory activity (in words): electric eel AChE, Ellman's assay; for times more active than 3-oxo-analog: indole derivative vs its 3-oxo amide
T1 construct: purchased Sigma-Aldrich C2888
Procedure: Acetylcholinesterase from Electrophorus electricus (electric eel) (AChE, Sigma C2888), sodium phosphate buffer (PBS) 0.1 M pH 7.4, acetylthiocholine iodide (ACT, Sigma A5751), and 5,5′-dithiobis-(2-nitrobenzoic acid) (DTNB, Sigma D8130) were purchased from Sigma-Aldrich (St. Louis, MO, USA). In vitro anti-AChE activity was performed based on the modified Ellman’s method. […] The IC50 values were determined graphically from inhibition curves (log inhibitor concentration vs. percent of inhibition). All experiments were performed in triplicate. Donepezil was used as a positive control

[3] = target: T2, recombinant human acetylcholinesterase (hAChE) (Homo sapiens, UniProt P22303); test: In vitro inhibition of recombinant human AChE (Ellman's method), IC50; format: biochemical; details: 1 mM ATC, pH 8.0, 25 °C, read-out: IC50 against hAChE enzyme
T2 construct: purchased Sigma-Aldrich
Procedure: Acetylthiocholine iodide (ATC), recombinant human acetylcholinesterase (hAChE), and 5,5′-dithio-bis-(2-nitrobenzoic) acid (DTNB) were purchased from Sigma-Aldrich (Sigma-Aldrich). Dimethyl sulfoxide (DMSO) was purchased from PanReac AppliChem GmbH (Darmstadt, Germany). All other chemicals were of biochemical grade. All assays were performed at 25 °C using a UV-1800 Shimadzu (Kyoto, Japan) spectrophotometer at 412 nm. The inhibitory potency of compounds against hAChE was studied using Ellman’s method. Stock solutions of compounds (0.01 M) were prepared using DMSO. The final concentration of DMSO in the cuvette was less than 0.05% vol. The inhibitory effect against AChE of 0.05% DMSO was considered weak. To determine the IC50 (the concentration of the compound producing 50% enzyme activity inhibition), enzyme-catalyzed hydrolysis was carried out in 0.1 M phosphate buffer (pH 8.0) containing hAChE in the picomolar range, DTNB (0.1 mM final concentration), and 1 mM ATC as substrate. […] Then, absorbance change was recorded for 2 min. […] The percentage of hAChE inhibition was determined by comparison of rates of reaction of test samples relative to the control sample. […] IC50 was calculated using the Hill Equation: E/Emax=I^n/IC50n+I^n where E is the enzyme activity and [I] is the compound concentration.

[4] = target: T2, recombinant human acetylcholinesterase (hAChE); test: hAChE inhibition constants and inhibition type (Dixon and Cornish-Bowden plots); format: biochemical; details: for type of AChE inhibition: Dixon and Cornish-Bowden plots
Procedure: The inhibition constants for hAChE were determined in 0.1M sodium phosphate buffer (pH 8.0) with various ATC concentrations in the range 0.1–1 mM. The rate of hydrolysis of ATC was measured after the addition of DTNB (0.1 mM final concentration) and enzyme. The final enzyme concentration in the assays was in the picomolar range. Controls of the active enzyme with 0.05% DMSO and ATC spontaneous hydrolysis in the absence of an inhibitor were performed for each substrate concentration. The rate of substrate hydrolysis was recorded by monitoring the linear optical density change at 412 nm for 5 min. Experiments were performed in triplicate. Inhibition constants were determined from the Dixon plot and Cornish-Bowden transformation using OriginPro 8.5 software (OriginLab Corporation, Northampton, MA, USA).

[5] = system: human T-lymphoblastic leukemia cancer cells; details: cited from earlier work
[6] = target: AChE; details: cited from earlier work; for type of inhibition of AChE: native triterpenic acids
[7] = design: method as in PMID 32090748; details: combination with SSRIs, patients with MDD; cited from earlier work

T2 sequence (P22303 32-614): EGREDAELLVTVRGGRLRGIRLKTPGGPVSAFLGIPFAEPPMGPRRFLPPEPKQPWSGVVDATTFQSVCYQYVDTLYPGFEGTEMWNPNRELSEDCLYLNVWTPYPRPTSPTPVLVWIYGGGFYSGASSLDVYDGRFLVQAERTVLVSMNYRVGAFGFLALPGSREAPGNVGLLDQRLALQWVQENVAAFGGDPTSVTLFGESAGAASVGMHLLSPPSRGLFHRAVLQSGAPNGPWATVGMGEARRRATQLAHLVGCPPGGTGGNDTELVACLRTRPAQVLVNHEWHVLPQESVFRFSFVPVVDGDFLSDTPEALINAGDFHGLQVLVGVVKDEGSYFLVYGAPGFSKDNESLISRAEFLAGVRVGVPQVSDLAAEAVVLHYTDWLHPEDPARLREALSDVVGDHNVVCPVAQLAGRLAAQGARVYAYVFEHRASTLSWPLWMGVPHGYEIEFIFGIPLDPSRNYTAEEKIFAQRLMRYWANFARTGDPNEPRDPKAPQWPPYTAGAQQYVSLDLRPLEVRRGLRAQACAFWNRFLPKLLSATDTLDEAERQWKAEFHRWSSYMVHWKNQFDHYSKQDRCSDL
T1 sequence (O42275 24-633): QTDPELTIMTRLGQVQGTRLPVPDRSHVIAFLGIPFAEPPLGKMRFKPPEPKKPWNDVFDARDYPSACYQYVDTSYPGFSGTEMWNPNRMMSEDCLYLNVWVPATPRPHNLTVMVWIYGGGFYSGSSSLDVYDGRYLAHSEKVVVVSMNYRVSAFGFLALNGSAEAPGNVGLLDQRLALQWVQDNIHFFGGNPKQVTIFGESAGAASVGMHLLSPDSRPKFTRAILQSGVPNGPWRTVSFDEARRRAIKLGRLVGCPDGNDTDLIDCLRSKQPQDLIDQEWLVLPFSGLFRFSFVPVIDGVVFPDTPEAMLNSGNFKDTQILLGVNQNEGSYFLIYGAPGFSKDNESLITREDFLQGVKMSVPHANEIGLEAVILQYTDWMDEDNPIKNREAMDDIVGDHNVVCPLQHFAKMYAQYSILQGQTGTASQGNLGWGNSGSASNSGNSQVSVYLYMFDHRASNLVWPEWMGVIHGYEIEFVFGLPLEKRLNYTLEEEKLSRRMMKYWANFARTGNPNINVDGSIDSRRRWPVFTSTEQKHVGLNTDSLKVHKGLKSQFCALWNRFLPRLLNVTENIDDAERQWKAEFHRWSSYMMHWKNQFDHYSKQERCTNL

N-benzyl-3-benzamidoquinuclidine
Ki ([1]; read-out: Ki, butyrylcholinesterase inhibitory activity): 3.7 µM

C[C@@H]1CC[C@]2(C(=O)NC3CN4CCC3CC4)CC[C@]3(C)C(=CCC4[C@@]5(C)Cc6c([nH]c7ccccc67)C(C)(C)C5CC[C@]43C)C2[C@H]1C (mixture of isomers) [Compound 12, [3,2b]Indolo-urs-12-en-28-((±)-3-aminoquinuclidine) amide]
IC50 [2]: 18 ± 1.39 µM | AChE inhibitory activity (in words) [2]: weak activity

CC1(C)CC[C@]2(C(=O)NC3CN4CCC3CC4)CC[C@]3(C)C(=CCC4[C@@]5(C)Cc6c([nH]c7ccccc67)C(C)(C)C5CC[C@]43C)C2C1 (mixture of isomers) [Compound 11, [3,2b]Indolo-olean-12-en-28-((±)-3-aminoquinuclidine) amide]
IC50 [2]: 0.47 ± 0.03 µM | AChE inhibitory activity (in words) [2]: weak activity | times more active than 3-oxo-analog ([2]; ratio of AChE IC50 values): 3.5 times | IC50 [3]: 8.89 ± 0.4 µM | type of AChE inhibition [4]: uncompetitive type of inhibition | type of AChE inhibition ([4]; listed as 2,3-indolo-oleanolic acid amide): uncompetitive-type inhibitor | Kui (uncompetitive inhibition constant) ([4]; hAChE, ATC 0.1–1 mM, pH 8.0): 19.1 ± 5.1 µM

C[C@@H]1CC[C@@]2(OC1)O[C@H]1C[C@H]3[C@@H]4CC=C5C[C@@H](O)CC[C@]5(C)[C@H]4CC[C@]3(C)[C@H]1[C@@H]2C [diosgenin]
cytotoxicity (in words) [5]: does not exhibit cytotoxicity

CC1(C)c2[nH]c3ccccc3c2C[C@@]2(C)C1CC[C@]1(C)C2CC=C2C3C[C@@](C)(C(=O)NC4CN5CCC4CC5)CC[C@]3(C)CC[C@]21C (mixture of isomers) [Compound 13, [3,2b]Indolo-11-dezoxo-olean-12-en-30-((±)-3-aminoquinuclidine) amide]
IC50 [2]: > 128 µM | AChE inhibitory activity (in words) [2]: weak activity

C=C(C)[C@@H]1CC[C@]2(C(=O)NC3CN4CCC3CC4)CC[C@]3(C)C(CCC4[C@@]5(C)Cc6c([nH]c7ccccc67)C(C)(C)C5CC[C@]43C)C12 (mixture of isomers) [Compound 10, [3,2b]Indolo-lup-20-en-28-((±)-3-aminoquinuclidine) amide]
IC50 [2]: 4.77 ± 0.21 µM | times more active than 3-oxo-analog ([2]; ratio of AChE IC50 values): 3.5 times

CC1(C)C(=O)CC[C@@]2(C)C1CC[C@]1(C)C2CC=C2C3C[C@@](C)(C(=O)NC4CN5CCC4CC5)CC[C@]3(C)CC[C@]21C (mixture of isomers) [Compound 9, 3-oxo-11-dezoxo-olean-12-en-30-((±)-3-aminoquinuclidine) amide]
IC50 [2]: 29 µM and 28.9 µM | AChE inhibitory activity (in words) [2]: weak activity

CC1(C)CC[C@]2(C(=O)NC3CN4CCC3CC4)CC[C@]3(C)C(=CCC4[C@@]5(C)CCC(=O)C(C)(C)C5CC[C@]43C)C2C1 (mixture of isomers) [Compound 7, 3-oxo-olean-12-en-28-((±)-3-aminoquinuclidine) amide]
IC50 [2]: 1.67 ± 0.05 µM

CC(=O)O[C@H]1CC[C@@]2(C)C(CC[C@]3(C)C2CCC2C4[C@H](C(C)=O)CC[C@]4(C(=O)NCCN4CCCC4)CC[C@]23C)C1(C)C (stereo partly drawn)
Ki ([1]; read-out: Ki against BChE): 0.07 µM

C=C(C)[C@@H]1CC[C@]2(C(=O)NCCN3CCCCC3)CC[C@]3(C)C(CCC4[C@@]5(C)CC[C@H](O)C(C)(C)C5CC[C@]43C)C12 (stereo partly drawn)
Ki ([6]; selective inhibition of AChE): 1 µM

C[C@@H]1CC[C@]2(C(=O)NC3CN4CCC3CC4)CC[C@]3(C)C(=CCC4[C@@]5(C)CCC(=O)C(C)(C)C5CC[C@]43C)C2[C@H]1C (mixture of isomers) [Compound 8, 3-oxo-urs-12-en-28-((±)-3-aminoquinuclidine) amide]
IC50 [2]: 0.43 ± 0.02 µM | times less active than donepezil ([2]; ratio of AChE IC50 values): 14.8 times | IC50 [3]: 5.33 ± 1.6 µM | type of AChE inhibition [4]: mixed-type inhibitor | Kui (uncompetitive inhibition constant) ([4]; hAChE, ATC 0.1–1 mM, pH 8.0): 22.8 ± 1.5 µM | Ki ([4]; hAChE, ATC 0.1–1 mM, pH 8.0, read-out: Kci (competitive inhibition constant)): 6.8 ± 0.4 µM

C[C@H]1[C@H](C)CC[C@]2(C(=O)O)CC[C@]3(C)C(=CC[C@@H]4[C@@]5(C)CC[C@H](O)C(C)(C)[C@@H]5CC[C@]43C)[C@H]12 [UA, ursolic acid]
type of inhibition of AChE [6]: mixed | BChE activity (in words) [1]: inactivity

CC1(C)[C@@H](O[C@H]2O[C@H](C(=O)O)[C@@H](O)[C@H](O)[C@H]2O[C@@H]2O[C@H](C(=O)O)[C@@H](O)[C@H](O)[C@H]2O)CC[C@]2(C)[C@H]3C(=O)C=C4[C@@H]5C[C@@](C)(C(=O)O)CC[C@]5(C)CC[C@@]4(C)[C@]3(C)CC[C@@H]12 [glycyrrhizic acid, Glycyrrhizic acid]
clinical effect of adjunctive therapy (in words) [7]: impressively greater symptomatic improvement, better treatment response, and a faster onset of clinical effects

CC1(C)CC[C@]2(C(=O)O)CC[C@]3(C)C(=CC[C@@H]4[C@@]5(C)CC[C@H](O)C(C)(C)[C@@H]5CC[C@]43C)[C@@H]2C1 [OA, oleanolic acid]
type of inhibition of AChE [6]: competitive | BChE activity (in words) [1]: inactivity

C=C(C)[C@@H]1CC[C@]2(C(=O)NC3CN4CCC3CC4)CC[C@]3(C)C(CCC4[C@@]5(C)CCC(=O)C(C)(C)C5CC[C@]43C)C12 (mixture of isomers) [Compound 6, 3-oxo-lup-20-en-28-((±)-3-aminoquinuclidine) amide]
IC50 [2]: 17 ± 1.04 µM | AChE inhibitory activity (in words) [2]: weak activity
